Results taken from patent publication US20250313546A1, “NUCLEIC ACID BINDERS” (UNIVERSITY OF STRATHCLYDE, priority 2022, published 2025).
In brackets after ≈: the same amount, converted by molar mass.

Columns and labels:
Type in all cases: cell-based
[1] = system: Escherichia coli (ATCC 25922); test: Antibacterial MIC, broth microdilution (CLSI); settings: Escherichia coli, ATCC25922; read-out: MIC80 E. coli
[2] = system: Staphylococcus aureus (ATCC 43300); test: Antibacterial MIC, broth microdilution (CLSI); settings: for MIC80: Staphylococcus aureus, ATCC43300, read-out: MIC80 S. aureus; for S. aureus Selectivity Indices, Group: SI, IC50 (μM)/MIC80 (μM), HEK293 cytotoxicity
T. vaginalis = test: Trichomonas resorufin assay; settings: for T. vaginalis Selectivity Indices, Group: SI, IC50 (μM)/IC50 (μM), HEK293 cytotoxicity; for IC50: Trichomonas vaginalis, read-out: IC50 T. vaginalis
[3] = system: Enterococcus faecalis (ATCC 51299); test: Antibacterial MIC, broth microdilution (CLSI); settings: for MIC80: Enterococcus faecalis, ATCC51299, read-out: MIC80 E. faecalis; for E. faecalis Selectivity Indices, Group: SI, IC50 (μM)/MIC80 (μM), HEK293 cytotoxicity

| SMILES | MIC80 [1] | MIC80 [2] | T. vaginalis Selectivity Indices, Group (T. vaginalis; Amides) | IC50 (T. vaginalis) | MIC80 [3] | E. faecalis Selectivity Indices, Group ([3]; Amides) | S. aureus Selectivity Indices, Group ([2]; Alkyl Amidines and NH Pyrroles) | S. aureus Selectivity Indices, Group ([2]; Quaternary ammoniums) | T. vaginalis Selectivity Indices, Group (T. vaginalis; Alkyl Amidines and NH Pyrroles) | T. vaginalis Selectivity Indices, Group (T. vaginalis; Quaternary ammoniums) | E. faecalis Selectivity Indices, Group ([3]; Alkyl Amidines and NH Pyrroles) | E. faecalis Selectivity Indices, Group ([3]; Quaternary ammoniums) |
| --- | --- | --- | --- | --- | --- | --- | --- | --- | --- | --- | --- | --- |
| CCNC(=O)c1cc(NC(=O)c2cc(NC(=O)c3ccc(/C=C/c4cnc5ccccc5c4)cc3)cn2C)cn1C [IVa6, (E)-N-ethyl-1-methyl-4-(1-methyl-4-(4-(2-(quinolin-3-yl)vinyl)benzamido)-1H-pyrrole-2-carboxamido)-1H-pyrrole-2-carboxamide] | > 100 µM | < 5 µM | B (Group B: 0.25 < SI <= 0.5) | 1 to 5 µM | < 5 µM | B (Group B: 0.4 < SI <= 1.5) |  |  |  |  |  |  |
| Cn1cc(NC(=O)c2ccc(/C=C/c3cnc4ccccc4c3)cc2)cc1C(=O)Nc1cc(C(=O)N2CCCCC2)n(C)c1 [IVb1, (E)-1-methyl-N-(1-methyl-5-(piperidine-1-carbonyl)-1H-pyrrol-3-yl)-4-(4-(2-(quinolin-3-yl)vinyl)benzamido)-1H-pyrrole-2-carboxamide] | > 100 µM | 25 to 100 µM (≈ 14.7 to 58.7 µg/mL) |  | 5 to 50 µM | > 100 µM |  |  |  |  |  |  |  |
| Cn1cc(NC(=O)c2ccc(/C=C/c3cnc4ccccc4c3)cc2)cc1C(=O)Nc1cc(C(=O)N2CCSCC2)n(C)c1 [IVb2, (E)-1-methyl-N-(1-methyl-5-(thiomorpholine-4-carbonyl)-1H-pyrrol-3-yl)-4-(4-(2-(quinolin-3-yl)vinyl)benzamido)-1H-pyrrole-2-carboxamide] | > 100 µM | 25 to 100 µM (≈ 15.1 to 60.5 µg/mL) |  | 5 to 50 µM | > 100 µM |  |  |  |  |  |  |  |
| Cn1cc(NC(=O)c2ccc(/C=C/c3cnc4ccccc4c3)cc2)cc1C(=O)Nc1cc(C(=O)N2CCCCCC2)n(C)c1 [IVb3, (E)-N-(5-(azepane-1-carbonyl)-1-methyl-1H-pyrrol-3-yl)-1-methyl-4-(4-(2-(quinolin-3-yl)vinyl)benzamido)-1H-pyrrole-2-carboxamide] | > 100 µM | 25 to 100 µM (≈ 15 to 60.1 µg/mL) |  | 5 to 50 µM | > 100 µM |  |  |  |  |  |  |  |
| CN(C)CCNC(=O)c1cc(NC(=O)c2cc(NC(=O)c3ccc(/C=C/c4cnc5ccccc5c4)cc3)cn2C)cn1C [Ref-7, (E)-N-(2-(dimethylamino)ethyl)-1-methyl-4-(1-methyl-4-(4-(2-(quinolin-3-yl)vinyl)benzamido)-1H-pyrrole-2-carboxamido)-1H-pyrrole-2-carboxamide, reference compound] |  |  |  |  |  |  | A (Group A: SI < 3) | A (Group A: SI < 2) | A (Group A: SI < 8) | A (Group A: SI < 0.8) | A (Group A: SI < 3) | A (Group A: SI < 0.7) |
